# Where two headings read alike, the source gives them in different places.
# Legend:
# [1] = process described in the prior art (WO2018/093953); cited from earlier work
# [2] = Particle size distribution determination by image analysis (Morphologi G3); assay type: physicochemical
# Source text: The term “particle size distribution” (PSD) as used herein refers to the mean particle size from a statistical distribution of a range of particle sizes. The Compound I-HCl form 2 particle size distribution, in particular d90, d50, d10 values, may be determined by well-known methods of the prior art such as sieve analysis, laser diffraction methods, image analysis or optical counting methods.
# As used herein, by “d90 particle size” refers to the particle diameter wherein 90 percent of the particle population has a diameter below such value.
# As used herein, by “d50 particle size” refers to the median particle diameter, wherein half of the particle population has a diameter below such value.
# As used herein, by “d10 particle size” refers to the particle diameter wherein 10 percent of the particle population has a diameter below such value.
# The analysis of particle size distribution of each batch was performed by an image analysis method on a Morphologi G3 Automated Particle Characterization System (Malvern PaNanalytical) with a sample Dispersion Unit SDU Glass Plate (180×110 mm); the instrument automatically process the collected data using the software Morphologi ver. 8.20 and provides a cumulative distribution curve and results in terms of d10, d50 and d90.
# [3] = made according to Example 13, not milled
# [4] = made from Example 13, after milling (hammer mill, Example 14)
smiles,measurement,setting,value
"Cl.O=C(OC(C(F)(F)F)C(F)(F)F)N1CCN(Cc2ccc(C(F)(F)F)cc2N2CCCC2)CC1 [Compound I-HCl form 2, 1,1,1,3,3,3-hexafluoropropan-2-yl 4-(2-(pyrrolidin-1-yl)-4-(trifluoromethyl)benzyl)piperazine-1-carboxylate mono-hydrochloride salt Form 2]",d10 particle size,[1],≥ 5 µm
same,d90 particle size,[1],up to 300 μm
same,d10 particle size,[2]; [3],d10 53.5 μm
same,d50 particle size,[2]; [3],d50 133.1 μm
same,d90 particle size,[2]; [3],d90 201.7 μm
same,d10 particle size,[2]; [4],d10 24 μm
same,d50 particle size,[2]; [4],d50 67 μm
same,d90 particle size,[2]; [4],d90 175 μm
